Experimental data: patent publication US5747235A, “Silver halide light sensitive emulsion layer having enhanced photographic sensitivity” (Eastman Kodak Company, priority 1996, dated 1998)
Read-outs that look alike come from different tables or passages of the source.

Columns and labels:
[1] = known acceptors used in flash photolysis; cited from earlier work
[2] = Example 15: photographic sensitivity and fog, color format, blue sensitized emulsion T-2; conditions: for Photographic Sensitivity SWR2B: control=100
Experimental: (§1) The AgBrI tabular silver halide emulsion T-2 from Example 3 was optimally chemically and spectrally sensitized by adding NaSCN, 1.07 mmole of the blue sensitizing dye D-I per mole of silver, Na3 Au(S2 O3)2 ·2H2 O, Na2 S2 O3 ·5H2 O, and a benzothiazolium finish modifier and then subjecting the emulsion to a heat cycle to 65° C. The hydroxybenzene, 2,4-disulfocatechcol (HB3) at a concentration of 13×10^-3 mole/mole Ag was added to the emulsion melt before the start of the chemical sensitization procedure. This chemically sensitized emulsion was then used to prepare the experimental coating variations given in Table X. For all the variations in Table X, the antifoggant and stabilizer tetraazaindene (TAI) was added to the emulsion melt in an amount of 1.75 g/mole Ag before any further addenda. The fragmentable two-electron donors S-3, S-9, S-6, or S-8 were then added to the emulsion melt.
(§2) The melts were prepared for coating by adding additional water, deionized gelatin and coating surfactants. Coatings were prepared by combining the emulsion melts with a melt containing deionized gelatin and an aqueous dispersion of the cyan-forming color coupler CC-1 and coating the resulting mixture on acetate support. The final coatings contained Ag at 0.81 g/m^2, coupler at 1.61 g/m^2, and gelatin at 3.23 g/m^2. The coatings were overcoated with a protective layer containing gelatin at 1.08 g/m^2, coating surfactants, and a bisvinylsulfonylmethyl ether as a gelatin hardening agent. The structure of the color coupler CC-1 is given below: [drawing 120]
(§3) For photographic evaluation, each of the coating strips was exposed for 0.01 sec to a 3000K color temperature tungsten lamp filtered to give an effective color temperature of 5500K and further filtered through a Kodak Wratten filter number 2B, and a step wedge ranging in density from 0 to 4 density units in 0.20 density steps. This exposure gives light absorbed mainly by the blue sensitizing dye. The exposed film strips were developed for 31/4 minutes in Kodak C-41 color developer. SWR2B, relative sensitivity for this filtered exposure, was evaluated at a cyan density of 0.15 units above fog.
(§4) The AgBrl tabular emulsion T-2 as described in Example 3 was sensitized as described in Example 10 except that the hydroxybenzene HB3 was added at the completion of the chemical sensitization procedure. For all the variations in Table XV the antifoggant and stabilizer tetraaazindene (TAI) was added to the emulsion melt in an amount of 1.75 g/mole Ag before any further addenda. The fragmentable electron donor compounds S-19, PMT-3, and PMT-4 were then added to the emulsion melt. The melts were then coated and tested as described in Example 10.

[3] = cited from earlier work
[4] = Example 16: photographic sensitivity and fog, color format, blue sensitized emulsion T-2; conditions: control=100
[5] = as above
Experimental: as §1, §2, §3
as §4, with “XVI,” for “XV”, “tetraazaindene (TAI),” for “tetraaazindene (TAI)”, “two-electron” for “electron”, “TU-2” for “S-19, PMT-3,”, “TU-3” for “PMT-4”

O=C1C(Cl)=C(Cl)C(=O)C(Cl)=C1Cl [2,3,5,6-tetrachlorobenzoquinone]
reduction potential (Ered) [1]: 0.00 V

O=C1C=C(Cl)C(=O)C=C1Cl [2,5-dichlorobenzoquinone]
reduction potential (Ered) [1]: -0.18 V

CC(C(=O)O)N(CC(=O)O)c1ccc(S(=O)(=O)N2CCSCC2)cc1 (stereo not shown) [Compound S-19]
Fog ([2]; 4.4 x10^-6 mol/mol Ag): 0.06 | Photographic Sensitivity SWR2B ([2]; 4.4 x10^-6 mol/mol Ag): 115 | Fog ([2]; 8.8 x10^-6 mol/mol Ag): 0.08 | Photographic Sensitivity SWR2B ([2]; 8.8 x10^-6 mol/mol Ag): 112

N#Cc1c2ccccc2c(C#N)c2ccccc12 [DCA, 9,10-dicyanoanthracene]
reduction potential (Ered) [1]: -0.91 V

CC(C(=O)O)N(CCC(=O)Nc1cccc(-n2nnnc2S)c1)c1ccc(C=O)cc1 (stereo not shown) [PMT-3]
Fog ([2]; 0.045 x10^-6 mol/mol Ag): 0.07 | Photographic Sensitivity SWR2B ([2]; 0.045 x10^-6 mol/mol Ag): 151 | Fog ([2]; 0.14 x10^-6 mol/mol Ag): 0.08 | Photographic Sensitivity SWR2B ([2]; 0.14 x10^-6 mol/mol Ag): 151 | Fog ([2]; 0.45 x10^-6 mol/mol Ag): 0.07 | Photographic Sensitivity SWR2B ([2]; 0.45 x10^-6 mol/mol Ag): 141

CC(C(=O)O)N(CC(=O)O)c1ccc(S(=O)(=O)Nc2cccc(-n3nnnc3S)c2)cc1 (stereo not shown) [PMT-4]
Fog ([2]; 0.14 x10^-6 mol/mol Ag): 0.06 | Photographic Sensitivity SWR2B ([2]; 0.14 x10^-6 mol/mol Ag): 115 | Fog ([2]; 0.45 x10^-6 mol/mol Ag): 0.07 | Photographic Sensitivity SWR2B ([2]; 0.45 x10^-6 mol/mol Ag): 120

[Cl][Sn][Cl] [SnCl2]
oxidation potential ([3]; SnCl2, CRC Handbook): ~ -0.10 V

N#Cc1ccc2c(C#N)c3cc(C#N)ccc3c(C#N)c2c1 [TCA, tetracyanoanthracene]
reduction potential (Ered) [1]: -0.44 V

CC(C(=O)O)N(CCC(=O)N(C)CCN(C)C(=S)N(C)C)c1ccccc1 (stereo not shown) [TU-2]
Photographic Sensitivity SWR3B ([4]; 0.45 x10^-6 mol/molAg): 118 | Photographic Sensitivity SWR3B ([4]; 1.4 x10^-6 mol/molAg): 135 | Photographic Sensitivity SWR3B ([4]; 4.5 x10^-6 mol/molAg): 159 | Fog ([5]; 0.45 x10^-6 mol/molAg): 0.08 | Fog ([5]; 1.4 x10^-6 mol/molAg): 0.09 | Fog ([5]; 4.5 x10^-6 mol/molAg): 0.11

CC(C(=O)O)N(CCC(=O)N(C)CCN(C)C(=S)N(C)C)c1ccc(C=O)cc1 (stereo not shown) [TU-3]
Photographic Sensitivity SWR3B ([4]; 14 x10^-6 mol/molAg): 145 | Photographic Sensitivity SWR3B ([4]; 45 x10^-6 mol/molAg): 155 | Photographic Sensitivity SWR3B ([4]; 140 x10^-6 mol/molAg): 166 | Fog ([5]; 14 x10^-6 mol/molAg): 0.09 | Fog ([5]; 45 x10^-6 mol/molAg): 0.09 | Fog ([5]; 140 x10^-6 mol/molAg): 0.10

N#Cc1ccc2c(C#N)c3ccccc3c(C#N)c2c1 [TriCA, 2,9,10-tricyanoanthracene]
reduction potential (Ered) [1]: -0.67 V

B [borohydride]
oxidation potential ([3]; literature): -0.48 V vs SCE

O=C1C=CC(=O)C(Cl)=C1 [chlorobenzoquinone]
reduction potential (Ered) [1]: -0.34 V
